Measurements: US20090041806A1, “USE OF PRODRUGS OF GABA ANALOGS, ANTISPASTICITY AGENTS, AND PRODRUGS OF GABA B RECEPTOR AGONISTS FOR TREATING SPASTICITY” (XenoPort, Inc., priority 2007, published 2009)

Experiments:
[1] = oral baclofen; cited from earlier work
[2] = Uptake of gabapentin following intracolonic administration of gabapentin or gabapentin prodrugs in rats; assay type: in vivo; details: rat, dose equivalent to 25 mg gabapentin per kg
Experimental: Sustained release oral dosage forms, which release drug slowly over periods of 6-24 hours, generally release a significant proportion of the dose within the colon. […] This experiment was conducted to assess the suitability of gabapentin prodrugs for use in oral sustained release dosage forms.
Rats were obtained commercially and were pre-cannulated in the both the ascending colon and the jugular vein. Animals were conscious at the time of the experiment. All animals were fasted overnight and until 4 hours post-dosing. […]
were administered as a solution (in water or PEG 400) directly into the colon via the cannula at a dose equivalent to 25 mg of gabapentin per kg. […] Blood samples were analyzed as described below. […]
were used. […] The peaks were integrated using Analyst 1.1 quantitation software.

[3] = Randomized, crossover, fed/fasted single-dose pharmacokinetic study of oral sustained release tablets of compound (7) in healthy adult subjects; details: for AUC of compound (7) in blood as percent of the corresponding AUC of gabapentin in blood / maximum intact prodrug concentration as percent of the corresponding peak gabapentin concentration: oral tablets
Experimental: A randomized, crossover, fed/fasted single-dose study of the safety, tolerability, and pharmacokinetics of oral administration of 1-{[α-isobutanoyloxyethoxy)carbonyl]aminomethyl}-1-cyclohexane acetic acid (7) in healthy adult subjects was conducted. The oral sustained release dosage form of Example 4 was used in this study. The study was designed to evaluate the performance of this formulation in humans in comparison with the commercial gabapentin capsule formulation (Neurontin®, Pfizer). Twelve healthy adult volunteers (7 males and 5 females) participated in the study. Mean body weight was 75.6 kg. All subjects received two different treatments in a random order with a one-week washout between treatments. The two treatments were: a single oral dose of Example 4 tablets (2×600 mg) after an overnight fast; and a single oral dose of Example 4 tablets (2×600 mg) after a high fat breakfast.
Blood and plasma samples were collected from all subjects prior to dosing, and at 0.5, 1, 1.5, 2, 3, 4, 6, 8, 12, 18, 24, and 36 hours after dosing. Urine samples were collected from all subjects prior to dosing, and complete urine output was obtained at the 0-4 h, 4-8 h, 8-12 h, 12-18 h, 18-24 h, and 24-36 h intervals after dosing. Blood samples were quenched immediately with methanol and stored frozen at […] Sample aliquots were prepared for analysis of gabapentin and compound (7) using sensitive and specific LC/MS/MS methods.

[4] = Uptake of R-baclofen following oral administration of R-baclofen prodrugs to cynomolgus monkeys; details: cynomolgus monkey, in vivo
Experimental: (5 mg baclofen-eq/kg) were administered by oral gavage to groups of four male cynomolgus monkeys as either an aqueous solution or suspension in 0.5% methylcellulose/0.1% Tween-80 respectively. […] The oral bioavailability of both prodrugs: • (sodium 4-{[(1S)-isobutanoyloxyisobutoxy]carbonylamino}-(3R)-(4-chlorophenyl)-butanoate; and • 4-{[(1S)-isobutanoyloxyisobutoxy]carbonylamino}-(3R)-(4-chlorophenyl)-butanoic acid;

[5] = cited from earlier work
[6] = oral; 2 mg t.i.d. R-baclofen equivalent to 10 mg t.i.d. racemic baclofen; cited from earlier work

NCC(CC(=O)O)c1ccc(Cl)cc1 (racemic) [Baclofen, (±)-4-amino-3-(4-chlorophenyl)butanoic acid]
elimination half-life [1]: 3 to 4 h

CC(OC(=O)NCC1(CC(=O)O)CCCCC1)OC(=O)C(C)C (stereo not drawn) [compound (7), 1-{[(α-isobutanoyloxyethoxy)carbonyl]aminomethyl}-1-cyclohexane acetic acid]
area under the gabapentin plasma concentration vs. time curve (AUC) relative to colonic administration of gabapentin itself [2]: greater than 10 fold
maximum plasma concentration of gabapentin (Cmax) relative to colonic administration of gabapentin itself [2]: greater than 10 fold
maximum concentration of intact compound (7) in blood ([3]; human, in vivo, po): 0.040 µg/mL
AUC of compound (7) in blood as percent of the corresponding AUC of gabapentin in blood ([3]; fasted subjects): 0.3%
maximum intact prodrug concentration as percent of the corresponding peak gabapentin concentration ([3]; fasted subjects): approximately 1.0%
AUC of compound (7) in blood as percent of the corresponding AUC of gabapentin in blood ([3]; fed subjects): less than 0.1%
maximum intact prodrug concentration as percent of the corresponding peak gabapentin concentration ([3]; fed subjects): approximately 0.3%

CC(C)C(=O)O[C@@H](OC(=O)NC[C@H](CC(=O)[O-])c1ccc(Cl)cc1)C(C)C.[Na+] [sodium 4-{[(1S)-isobutanoyloxyisobutoxy]carbonylamino}-(3R)-(4-chlorophenyl)-butanoate]
oral bioavailability as R-baclofen [4]: greater than 80%

NCC1(CC(=O)O)CCCCC1 [gabapentin]
typical Tmax of immediate release gabapentin [5]: 2 to 4 h

NC[C@H](CC(=O)O)c1ccc(Cl)cc1 [R-baclofen, R-(−)-baclofen]
potency of orally administered R-baclofen relative to orally administered racemic baclofen [6]: about 5 fold
